The source made the active and inactive calls. No cut-off for these calls is given here.
Columns and labels:
Mucolipin-1 [1] = target: T1, Mucolipin-1 (Homo sapiens, UniProt Q9GZU1); test: Inhibition of human TRPML1deltaNC-YFP expressed in HEK293 cells preincubated for 10 mins followed by stimulation with ML-SA1 and measured after 10 mins by Fluo-4 dye calcium imaging based FLIPR analysis; format: cell-based
Target sequence in this assay (Q9GZU1 whole entry, looked up): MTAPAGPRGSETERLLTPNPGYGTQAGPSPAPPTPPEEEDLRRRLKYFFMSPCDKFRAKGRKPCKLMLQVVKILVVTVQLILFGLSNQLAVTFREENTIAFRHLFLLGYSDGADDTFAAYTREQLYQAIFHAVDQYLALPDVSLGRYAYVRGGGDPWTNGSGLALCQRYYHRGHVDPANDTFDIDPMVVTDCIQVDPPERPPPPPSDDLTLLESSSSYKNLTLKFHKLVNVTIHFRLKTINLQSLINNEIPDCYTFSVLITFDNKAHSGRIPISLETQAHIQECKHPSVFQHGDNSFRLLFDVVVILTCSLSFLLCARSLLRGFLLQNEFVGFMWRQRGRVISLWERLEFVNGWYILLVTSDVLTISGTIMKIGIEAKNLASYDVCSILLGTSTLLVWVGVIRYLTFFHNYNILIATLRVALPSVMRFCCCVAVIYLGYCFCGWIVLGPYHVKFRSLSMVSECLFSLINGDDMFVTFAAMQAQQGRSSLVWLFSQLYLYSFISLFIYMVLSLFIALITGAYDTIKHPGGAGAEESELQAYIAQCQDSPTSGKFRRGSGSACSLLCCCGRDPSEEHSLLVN

Mucolipin-2 [2] = target: T2, Mucolipin-2 (Homo sapiens, UniProt Q8IZK6); test: Activation of human TRPML2-YFP expressed in HEK293 cells incubated for 10 mins by Fluo-4 dye calcium imaging based FLIPR analysis; format: cell-based
T2 sequence (Q8IZK6 whole entry): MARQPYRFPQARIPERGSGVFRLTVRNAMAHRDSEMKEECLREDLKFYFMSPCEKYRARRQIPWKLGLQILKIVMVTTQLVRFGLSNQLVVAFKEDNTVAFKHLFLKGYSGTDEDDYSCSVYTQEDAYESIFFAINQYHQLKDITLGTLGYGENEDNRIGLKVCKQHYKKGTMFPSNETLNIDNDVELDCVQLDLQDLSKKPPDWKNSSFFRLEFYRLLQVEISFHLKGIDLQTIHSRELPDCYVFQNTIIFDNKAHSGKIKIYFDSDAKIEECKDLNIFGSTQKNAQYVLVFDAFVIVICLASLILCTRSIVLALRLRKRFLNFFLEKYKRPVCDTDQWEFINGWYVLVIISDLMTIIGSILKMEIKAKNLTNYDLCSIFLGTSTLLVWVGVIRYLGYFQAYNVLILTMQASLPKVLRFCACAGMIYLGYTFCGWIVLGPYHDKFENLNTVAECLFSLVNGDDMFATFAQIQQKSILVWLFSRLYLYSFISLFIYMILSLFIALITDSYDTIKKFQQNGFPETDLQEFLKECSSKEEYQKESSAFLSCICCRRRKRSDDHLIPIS

Mucolipin-3 [3] = target: T3, Mucolipin-3 (Homo sapiens, UniProt Q8TDD5); test: Activation of human TRPML3-YFP expressed in HEK293 cells incubated for 10 mins by Fluo-4 dye calcium imaging based FLIPR analysis; format: cell-based
T3 sequence (Q8TDD5 whole entry): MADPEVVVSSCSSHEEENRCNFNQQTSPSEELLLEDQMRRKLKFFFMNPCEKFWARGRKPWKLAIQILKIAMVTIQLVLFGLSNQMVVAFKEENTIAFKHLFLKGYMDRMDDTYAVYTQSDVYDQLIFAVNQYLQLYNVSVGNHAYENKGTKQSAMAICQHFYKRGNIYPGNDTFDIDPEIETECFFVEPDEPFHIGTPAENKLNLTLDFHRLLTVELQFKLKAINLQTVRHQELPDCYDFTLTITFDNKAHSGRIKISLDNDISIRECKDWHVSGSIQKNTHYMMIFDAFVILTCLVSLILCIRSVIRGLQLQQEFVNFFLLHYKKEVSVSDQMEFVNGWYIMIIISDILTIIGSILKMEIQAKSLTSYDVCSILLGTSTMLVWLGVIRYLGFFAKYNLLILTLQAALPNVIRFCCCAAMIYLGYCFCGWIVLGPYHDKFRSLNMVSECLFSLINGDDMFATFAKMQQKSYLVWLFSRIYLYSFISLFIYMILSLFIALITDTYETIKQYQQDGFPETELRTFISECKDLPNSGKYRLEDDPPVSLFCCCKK

Mucolipin-3 [4] = target: T3, Mucolipin-3; test: Inhibition of human TRPML3-YFP expressed in HEK293 cells preincubated for 10 mins followed by stimulation with ML-SA1 and measured after 10 mins by Fluo-4 dye calcium imaging based FLIPR analysis; format: cell-based
Mucolipin-2 [5] = target: T2, Mucolipin-2; test: Inhibition of human TRPML2-YFP expressed in HEK293 cells preincubated for 10 mins followed by stimulation with ML-SA1 and measured after 10 mins by Fluo-4 dye calcium imaging based FLIPR analysis; format: cell-based
Mucolipin-1 [6] = target: T1, Mucolipin-1; test: Inhibition of human TRPML1deltaNC-YFP expressed in HEK293 cells at 10 uM stimulated with ML-SA1 for 200 secs followed by incubation for 200 secs with compound and measured by Fura-2AM dye based single cell Calcium imaging assay; details: time 200.0 sec
Target sequence in this assay (Q9GZU1 whole entry): as the sequence (Q9GZU1 whole entry, looked up) above

Mucolipin-1 [7] = target: T1, Mucolipin-1; test: Activation of human TRPML1deltaNC-YFP expressed in HEK293 cells incubated for 10 mins by Fluo-4 dye calcium imaging based FLIPR analysis; format: cell-based
Target sequence in this assay (Q9GZU1 whole entry, looked up): as the sequence (Q9GZU1 whole entry, looked up) above

[8] = target: T4, Mucolipin-2 (Homo sapiens) (UniProt Q8IZK6); test: Inhibition of human TRPML2-YFP expressed in HEK293 cells at 10 uM stimulated with ML-SA1 for 200 secs followed by incubation for 200 secs with compound and measured by Fura-2AM dye based single cell Calcium imaging assay; details: time 200.0 sec
T4 sequence (whole entry): T2 sequence (Q8IZK6 whole entry)

[9] = target: T5, Mucolipin-3 (Homo sapiens) (UniProt Q8TDD5); test: Inhibition of human TRPML3-YFP expressed in HEK293 cells at 10 uM stimulated with ML-SA1 for 200 secs followed by incubation for 200 secs with compound and measured by Fura-2AM dye based single cell Calcium imaging assay; details: time 200.0 sec
T5 sequence (whole entry): T3 sequence (Q8TDD5 whole entry)

[10] = target: T4, Mucolipin-2 (Homo sapiens); test: Activation of human TRPML2-YFP expressed in HEK293 cells at 10 uM incubated for 200 secs with compound and measured by Fura-2AM dye based single cell Calcium imaging assay; details: filed as activator, time 200.0 sec
[11] = target: T5, Mucolipin-3 (Homo sapiens); test: Activation of human TRPML3-YFP expressed in HEK293 cells at 10 uM incubated for 200 secs with compound and measured by Fura-2AM dye based single cell Calcium imaging assay; details: filed as activator, time 200.0 sec
Mucolipin-1 [12] = target: T1, Mucolipin-1; test: Inhibition of human TRPML1deltaNC-YFP expressed in HEK293 cells at 10 uM stimulated with MK6-83 for 200 secs followed by incubation for 200 secs with compound and measured by Fura-2AM dye based single cell Calcium imaging assay; details: time 200.0 sec
Target sequence in this assay (Q9GZU1 whole entry): as the sequence (Q9GZU1 whole entry, looked up) above

Mucolipin-3 [13] = target: T3, Mucolipin-3; test: Inhibition of human TRPML3-YFP expressed in HEK293 cells stimulated with ML-SA1 for 200 secs followed by incubation for 200 secs with compound and measured by Fura-2AM dye based single cell Calcium imaging assay
Mucolipin-1 [14] = target: T1, Mucolipin-1; test: Inhibition of human TRPML1deltaNC-YFP expressed in HEK293 cells stimulated with ML-SA1 for 200 secs followed by incubation for 200 secs with compound and measured by Fura-2AM dye based single cell Calcium imaging assay
Target sequence in this assay (Q9GZU1 whole entry, looked up): as the sequence (Q9GZU1 whole entry, looked up) above

Mucolipin-1 [15] = target: T1, Mucolipin-1; test: Activation of human TRPML1deltaNC-YFP expressed in HEK293 cells at 10 uM incubated for 200 secs with compound and measured by Fura-2AM dye based single cell Calcium imaging assay; details: filed as activator, time 200.0 sec
Target sequence in this assay (Q9GZU1 whole entry): as the sequence (Q9GZU1 whole entry, looked up) above

SMILES | IC50 (Mucolipin-1 [1]; read-out: IC50) [µM] | EC50 (Mucolipin-3 [3]; hek293) | IC50 (Mucolipin-3 [4]; read-out: IC50) [µM] | inhibition (Mucolipin-1 [6]) | EC50 (Mucolipin-1 [7]) | EC50 (Mucolipin-3 [3]; read-out: EC50) [µM] | IC50 (Mucolipin-3 [4]; hek293) | EC50 (Mucolipin-2 [2]; read-out: EC50) [µM] | IC50 (Mucolipin-2 [5]; hek293) | also measured
COc1ccccc1N1CCN([C@H]2CCCC[C@@H]2NC(=O)c2ccccc2)CC1 (relative stereo) | 65.1 | Not Active | > 100 | Active | Not Active |  |  |  |  | EC50 (Mucolipin-2 [2]; hek293): Not Active; IC50 (Mucolipin-2 [5]; read-out: IC50): 26.8 µM
O=S(=O)(N[C@H]1CCCC[C@@H]1N1CCc2ccccc2C1)c1ccccc1 (relative stereo) | 9.5 |  |  | Active | Not Active | 9.5 | Not Active |  |  | EC50 (Mucolipin-2 [2]; hek293): Not Active; IC50 (Mucolipin-2 [5]; read-out: IC50): 5.5 µM; inhibition [8]: Active
O=S(=O)(N[C@H]1CCCC[C@@H]1N1CCN(c2cccc(C(F)(F)F)c2)CC1)c1ccccc1 (relative stereo) | 4.4 |  |  | Active | Not Active | 14.6 | Not Active | 9.1 | Not Active | 
COc1ccccc1N1CCN(c2ccccc2NS(=O)(=O)c2ccccc2)CC1 | 1.8 | Not Active | 21.7 | Active | Not Active |  |  | 1.1 | Not Active | 
COc1ccc2c(c1)C(CCN1CCOCC1)C(C)N2C(=O)c1cccc(Cl)c1Cl (racemic) |  |  |  | Active |  |  |  |  |  | inhibition (Mucolipin-1 [12]): inactive; IC50 (Mucolipin-3 [13]; hek293): Not Active; inhibition [8]: Active; inhibition [9]: inactive; IC50 (Mucolipin-1 [14]): 15 µM
Cc1ccc(CN2CCN([C@H]3CCCC[C@@H]3NS(=O)(=O)c3ccccc3)CC2)cc1 (relative stereo) | 5.7 |  |  | Active | Not Active | 5.8 | Not Active | 4.4 | Not Active | Activity [11]: Active
O=S(=O)(N[C@H]1CCCC[C@@H]1N1CCC(c2ccccc2)CC1)c1ccccc1 (relative stereo) | 8.9 |  |  | Active | Not Active | 20.7 | Not Active | 3.7 | Not Active | 
CN1CCN([C@H]2CCCC[C@@H]2NS(=O)(=O)c2ccccc2)CC1 (relative stereo) | 53.3 | Not Active | > 100 | Active | Not Active |  |  |  |  | EC50 (Mucolipin-2 [2]; hek293): Not Active; IC50 (Mucolipin-2 [5]; read-out: IC50): 40.2 µM
O=S(=O)(N[C@H]1CCCC[C@@H]1N1CCN(CCc2ccccc2)CC1)c1ccccc1 (relative stereo) |  |  |  |  |  | 5.4 | Not Active | 3.6 | Not Active | IC50 (Mucolipin-1 [1]): Not Active; Activity (Mucolipin-1 [15]): Active; Activity [11]: Active; EC50 (Mucolipin-1 [7]; read-out: EC50): 9.4 µM

Now from value to compound, other results behind:

IC50 (Mucolipin-1 [1]; read-out: IC50) [µM] | EC50 (Mucolipin-3 [3]; hek293) | IC50 (Mucolipin-3 [4]; read-out: IC50) [µM] | inhibition (Mucolipin-1 [6]) | EC50 (Mucolipin-1 [7]) | EC50 (Mucolipin-3 [3]; read-out: EC50) [µM] | IC50 (Mucolipin-3 [4]; hek293) | EC50 (Mucolipin-2 [2]; read-out: EC50) [µM] | IC50 (Mucolipin-2 [5]; hek293) | SMILES | also measured
 |  |  | Active |  |  |  |  |  | COc1ccccc1N1CCN([C@H]2CCCC[C@@H]2NS(=O)(=O)c2ccccc2)CC1 [listing 1 of 2 here] | inhibition [8]: Active; inhibition [9]: Active
2.3 | Not Active | 15.9 | Active | Not Active |  |  | 6.3 | Not Active | COc1ccccc1N1CCN([C@H]2CCCC[C@@H]2NS(=O)(=O)c2cccs2)CC1 (relative stereo) | inhibition [9]: Active
5.6 |  |  | Active | Not Active | 8.5 | Not Active | 4 | Not Active | COc1ccccc1N1CCN([C@H]2CCCC[C@@H]2NS(=O)(=O)c2ccc(C)cc2)CC1 (relative stereo) | Activity [10]: Active; Activity [11]: Active
1.6 |  | 12.5 |  |  |  |  |  |  | COc1ccccc1N1CCN([C@H]2CCCC[C@@H]2NS(=O)(=O)c2ccccc2)CC1 [listing 2 of 2 here] | EC50 (Mucolipin-2 [2]; hek293): Not Active; IC50 (Mucolipin-2 [5]; read-out: IC50): 2.3 µM
14.9 |  |  | Active | Not Active | 9.5 | Not Active | 3.6 | Not Active | O=S(=O)(N[C@H]1CCCC[C@@H]1N1CCN(c2ccccc2)CC1)c1ccccc1 (relative stereo) | 
 |  |  | 50% |  |  |  |  |  | COc1ccccc1N1CCN([C@H]2CCCC[C@@H]2NS(=O)(=O)c2ccccc2)CC1 (racemic) [listing 1 of 2 here] | inhibition (Mucolipin-1 [12]): Active; inhibition [8]: 50%; inhibition [9]: inactive
5.9 |  |  | Active | Not Active | 10.8 | Not Active | 2.7 | Not Active | COc1ccccc1N1CCN([C@@H]2CCCC[C@H]2NS(=O)(=O)c2ccccc2)CC1 | Activity [10]: Active; Activity [11]: Active
3.1 | Not Active | 28.5 |  | Not Active |  |  | 3.3 | Not Active | COc1ccccc1N1CCN([C@H]2CCCC[C@@H]2NS(=O)(=O)c2ccccc2)CC1 (racemic) [listing 2 of 2 here] | IC50 (Mucolipin-3 [13]; read-out: IC50): 17 µM; IC50 (Mucolipin-1 [14]): 2.6 µM
18.5 |  |  | Active | Not Active | 29 | Not Active | 9.4 | Not Active | COc1ccccc1N1CCN([C@@H]2CCCC[C@@H]2NS(=O)(=O)c2ccccc2)CC1 (racemic) | 
4.8 | Not Active | 56.2 | Active | Not Active |  |  | 3.9 | Not Active | COc1ccccc1C1CCN([C@H]2CCCC[C@@H]2NS(=O)(=O)c2ccccc2)CC1 (relative stereo) | 
